Measurements taken from US20140206681A1, “BTK INHIBITORS” (priority 2013, published 2014).

How the values were obtained:
HeLa cells = assay: [3H]Adenosine uptake functional cellular assay; assay type: cell-based; conditions: Homo sapiens, HeLa, accumulation of [3H]adenosine into HeLa cells; compound range 10 μM to […]; read-out: Adenosine uptake inhibition IC50
In short: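 Inhibition of adenosine uptake was measured in HeLa cells (ATCC CCL-2) by following accumulation of tritiated adenosine. Cells were kept overnight at 37° C. with 5% (v/v) CO2, then switched to 40 μL HBSS plus 5% (v/v) FBS. 20 μL of 500 nM [3H]adenosine was added, and uptake was counted on a Topcount NXT reader.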

[1] = molecular target: T1, BTK enzyme (recombinant full-length BTK, hBTK) (Homo sapiens, UniProt Q06187); assay: BTK enzyme activity assay, LANCE TR-FRET; assay type: biochemical; conditions: 50 pM hBTK, 2 μM biotin-A5-peptide, 25 μM ATP; 60 min compound & enzyme incubation; read-out: IC50 BTK activity value
T1 construct: recombinant protein from baculovirus-transfected Sf9 cells: full-length BTK, 6HIS-tag cleaved; 6HIS (cleaved yes); made in house; host or cells: baculovirus-transfected Sf9 cells
T1 sequence (Q06187 whole entry): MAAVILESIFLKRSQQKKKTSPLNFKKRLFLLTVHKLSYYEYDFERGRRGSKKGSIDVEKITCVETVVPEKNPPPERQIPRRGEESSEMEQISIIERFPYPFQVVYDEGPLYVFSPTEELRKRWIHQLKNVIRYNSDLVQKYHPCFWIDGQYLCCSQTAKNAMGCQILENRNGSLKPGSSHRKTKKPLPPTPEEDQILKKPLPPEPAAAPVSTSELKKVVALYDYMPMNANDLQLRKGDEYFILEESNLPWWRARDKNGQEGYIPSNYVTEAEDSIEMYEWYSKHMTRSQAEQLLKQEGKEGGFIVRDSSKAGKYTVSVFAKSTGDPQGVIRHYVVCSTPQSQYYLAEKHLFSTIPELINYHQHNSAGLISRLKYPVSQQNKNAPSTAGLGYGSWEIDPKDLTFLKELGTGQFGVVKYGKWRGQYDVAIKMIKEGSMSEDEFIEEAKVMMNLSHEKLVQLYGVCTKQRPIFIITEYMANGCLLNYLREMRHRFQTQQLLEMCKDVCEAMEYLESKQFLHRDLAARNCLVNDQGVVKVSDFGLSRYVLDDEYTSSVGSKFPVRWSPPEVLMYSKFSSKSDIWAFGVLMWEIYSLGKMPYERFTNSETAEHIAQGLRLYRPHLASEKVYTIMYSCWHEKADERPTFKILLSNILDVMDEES

For COc1cc(C(=O)Nc2cc(C(F)(F)F)ccn2)cc(F)c1-c1nc([C@@H]2CC[C@H]3CCC(=O)N3C2)n2ccnc(N)c12 [Example 134, 4-{8-amino-3-[(6R,8aS)-3-oxooctahydroindolizin-6-yl]imidazo[1,5-a]pyrazin-1-yl}-3-fluoro-5-methoxy-N-[4-(trifluoromethyl)pyridin-2-yl]benzamide], the IC50 (HeLa cells) was 1600 nM and the IC50 [1] was 0.28 nM.

CCOc1cc(C(=O)Nc2cc(C(F)(F)F)n(C)n2)ccc1-c1nc([C@@H]2CC[C@H]3CCC(=O)N3C2)n2c(Cl)cnc(N)c12 [Example 135, 4-{8-amino-5-chloro-3-[(6R,8aS)-3-oxooctahydroindolizin-6-yl]imidazo[1,5-a]pyrazin-1-yl}-3-ethoxy-N-[1-methyl-5-(trifluoromethyl)-1H-pyrazol-3-yl]benzamide] gave an IC50 (HeLa cells) of 2150 nM and an IC50 [1] of 0.23 nM.

CCOc1cc(C(=O)Nc2cc(C3CC3)ccn2)c(F)cc1-c1nc([C@@H]2CC[C@H]3CCC(=O)N3C2)n2c(Cl)cnc(N)c12 [Example 136, 4-{8-amino-5-chloro-3-[(6R,8aS)-3-oxooctahydroindolizin-6-yl]imidazo[1,5-a]pyrazin-1-yl}-N-(4-cyclopropylpyridin-2-yl)-5-ethoxy-2-fluorobenzamide] was tested, and the IC50 (HeLa cells) was 1430 nM and the IC50 [1] was 0.78 nM.

CCOc1cc(C(=O)Nc2cc(C3CC3)ccn2)c(F)cc1-c1nc([C@@H]2CC[C@H]3CCC(=O)N3C2)n2ccnc(N)c12 [Example 137, 4-{8-amino-3-[(6R,8aS)-3-oxooctahydroindolizin-6-yl]imidazo[1,5-a]pyrazin-1-yl}-N-(4-cyclopropylpyridin-2-yl)-5-ethoxy-2-fluorobenzamide] was tested, and the IC50 (HeLa cells) was 1200 nM and the IC50 [1] was 2 nM.

Nc1nccn2c([C@@H]3CC[C@H]4CCC(=O)N4C3)nc(-c3ccc(C(=O)Nc4cc(C(F)(F)F)ccn4)cc3OC3CCCCC3)c12 [Example 138, 4-{8-amino-3-[(6R,8aS)-3-oxooctahydroindolizin-6-yl]imidazo[1,5-a]pyrazin-1-yl}-3-(cyclohexyloxy)-N-[4-(trifluoromethyl)pyridin-2-yl]benzamide] gave an IC50 (HeLa cells) of 1380 nM and an IC50 [1] of 135 nM.

Work on CC(C)Oc1cc(C(=O)Nc2cc(C(F)(F)F)ccn2)ccc1-c1nc([C@@H]2CC[C@H]3CCC(=O)N3C2)n2ccnc(N)c12 [Example 139, 4-{8-amino-3-[(6R,8aS)-3-oxooctahydroindolizin-6-yl]imidazo[1,5-a]pyrazin-1-yl}-3-(1-methylethoxy)-N-[4-(trifluoromethyl)pyridin-2-yl]benzamide] yielded an IC50 (HeLa cells) of 1280 nM and an IC50 [1] of 5.7 nM.

Work on Nc1nccn2c([C@@H]3CC[C@H]4CCC(=O)N4C3)nc(-c3ccc(C(=O)Nc4cc(C(F)(F)F)ccn4)cc3OC3CCC3)c12 [Example 140, 4-{8-amino-3-[(6R,8aS)-3-oxooctahydroindolizin-6-yl]imidazo[1,5-a]pyrazin-1-yl}-3-(cyclobutyloxy)-N-[4-(trifluoromethyl)pyridin-2-yl]benzamide] yielded an IC50 (HeLa cells) of 756 nM and an IC50 [1] of 4.6 nM.

Nc1nccn2c([C@@H]3CC[C@H]4CCC(=O)N4C3)nc(-c3ccc(C(=O)Nc4cc(C(F)(F)F)ccn4)cc3OC3CCCC3)c12 [Example 141, 4-{8-amino-3-[(6R,8aS)-3-oxooctahydroindolizin-6-yl]imidazo[1,5-a]pyrazin-1-yl}-3-(cyclopentyloxy)-N-[4-(trifluoromethyl)pyridin-2-yl]benzamide] was tested, and the IC50 (HeLa cells) was 824 nM and the IC50 [1] was 23.7 nM.

Work on CC(C)(C)COc1cc(C(=O)Nc2cc(C(F)(F)F)ccn2)ccc1-c1nc([C@@H]2CC[C@H]3CCC(=O)N3C2)n2ccnc(N)c12 [Example 142, 4-{8-amino-3-[(6R,8aS)-3-oxooctahydroindolizin-6-yl]imidazo[1,5-a]pyrazin-1-yl}-3-(2,2-dimethylpropoxy)-N-[4-(trifluoromethyl)pyridin-2-yl]benzamide] yielded an IC50 (HeLa cells) of 1190 nM and an IC50 [1] of 17.5 nM.

Molecule Cn1nc(NC(=O)c2ccc(-c3nc([C@@H]4CC[C@H]5CCC(=O)N5C4)n4c(Cl)cnc(N)c34)c(OC3CC3)c2)cc1C(F)(F)F [Example 145, 4-{8-amino-5-chloro-3-[(6R,8aS)-3-oxooctahydroindolizin-6-yl]imidazo[1,5-a]pyrazin-1-yl}-3-(cyclopropyloxy)-N-[1-methyl-5-(trifluoromethyl)-1H-pyrazol-3-yl]benzamide] has an IC50 (HeLa cells) of 2420 nM and an IC50 [1] of 0.44 nM.

With Cn1nc(NC(=O)c2ccc(-c3nc([C@@H]4CC[C@H]5CCC(=O)N5C4)n4ccnc(N)c34)c(OC3CC3)c2)cc1C(F)(F)F [Example 146, 4-{8-amino-3-[(6R,8aS)-3-oxooctahydroindolizin-6-yl]imidazo[1,5-a]pyrazin-1-yl}-3-(cyclopropyloxy)-N-[1-methyl-5-(trifluoromethyl)-1H-pyrazol-3-yl]benzamide] the IC50 (HeLa cells) was 5000 nM and the IC50 [1] was 0.59 nM.

In the case of Nc1ncc(Cl)n2c([C@@H]3CC[C@H]4CCC(=O)N4C3)nc(-c3ccc(C(=O)Nc4cc(C5CC5)ccn4)cc3OC3CC3)c12 [Example 147, 4-{8-amino-5-chloro-3-[(6R,8aS)-3-oxooctahydroindolizin-6-yl]imidazo[1,5-a]pyrazin-1-yl}-3-(cyclopropyloxy)-N-(4-cyclopropylpyridin-2-yl)benzamide], the IC50 (HeLa cells) is reported as 959 nM and the IC50 [1] is reported as 0.75 nM.

With Nc1nccn2c([C@@H]3CC[C@H]4CCC(=O)N4C3)nc(-c3ccc(C(=O)Nc4cc(C5CC5)ccn4)cc3OC3CC3)c12 [Example 148, 4-{8-amino-3-[(6R,8aS)-3-oxooctahydroindolizin-6-yl]imidazo[1,5-a]pyrazin-1-yl}-3-(cyclopropyloxy)-N-(4-cyclopropylpyridin-2-yl)benzamide] the IC50 (HeLa cells) was 1080 nM and the IC50 [1] was 1.4 nM.

In the case of Cn1nc(NC(=O)c2ccc(-c3nc([C@@H]4CC[C@H]5CCC(=O)N5C4)n4ccnc(N)c34)c(OC3CNC3)c2)cc1C(F)(F)F [Example 149, 4-{8-amino-3-[(6R,8aS)-3-oxooctahydroindolizin-6-yl]imidazo[1,5-a]pyrazin-1-yl}-3-(azetidin-3-yloxy)-N-[1-methyl-5-(trifluoromethyl)-1H-pyrazol-3-yl]benzamide], the IC50 (HeLa cells) is reported as ≥ 10000 nM and the IC50 [1] is reported as 96.7 nM.

In the case of Cn1nc(NC(=O)c2cc(OC3CC3)c(-c3nc([C@@H]4CC[C@H]5CCC(=O)N5C4)n4c(Cl)cnc(N)c34)cc2F)cc1C(F)(F)F [Example 150, 4-{8-amino-5-chloro-3-[(6R,8aS)-3-oxooctahydroindolizin-6-yl]imidazo[1,5-a]pyrazin-1-yl}-5-(cyclopropyloxy)-2-fluoro-N-[1-methyl-5-(trifluoromethyl)-1H-pyrazol-3-yl]benzamide], the IC50 (HeLa cells) is reported as 2300 nM and the IC50 [1] is reported as 1.8 nM.

CCOc1cc(C(=O)Nc2cc(C(F)(F)F)ccn2)c(F)cc1-c1nc([C@@H]2CC[C@H]3CCC(=O)N3C2)n2ccnc(N)c12 [Example 151, 4-{8-amino-3-[(6R,8aS)-3-oxooctahydroindolizin-6-yl]imidazo[1,5-a]pyrazin-1-yl}-5-ethoxy-2-fluoro-N-[4-(trifluoromethyl)pyridin-2-yl]benzamide] was tested, and the IC50 (HeLa cells) was 1120 nM and the IC50 [1] was 0.75 nM.

Molecule CCOc1cc(C(=O)Nc2cc(C(F)(F)F)n(C)n2)c(F)cc1-c1nc([C@@H]2CC[C@H]3CCC(=O)N3C2)n2ccnc(N)c12 [Example 152, 4-{8-amino-3-[(6R,8aS)-3-oxooctahydroindolizin-6-yl]imidazo[1,5-a]pyrazin-1-yl}-5-ethoxy-2-fluoro-N-[1-methyl-5-(trifluoromethyl)-1H-pyrazol-3-yl]benzamide] has an IC50 (HeLa cells) of 1890 nM and an IC50 [1] of 1.3 nM.

For Nc1ncc(Cl)n2c([C@@H]3CC[C@H]4CCC(=O)N4C3)nc(-c3ccc(C(=O)Nc4cc(C(F)(F)F)ccn4)cc3)c12 [Example 153, 4-{8-amino-5-chloro-3-[(6R,8aS)-3-oxooctahydroindolizin-6-yl]imidazo[1,5-a]pyrazin-1-yl}-N-[4-(trifluoromethyl)pyridin-2-yl]benzamide], the IC50 (HeLa cells) was 501 nM and the IC50 [1] was 0.16 nM.

CC(=O)Oc1cc(C(=O)Nc2cc(C(F)(F)F)ccn2)ccc1-c1nc([C@@H]2CC[C@H]3CCC(=O)N3C2)n2ccnc(N)c12 [Example 155, 2-{8-amino-3-[(6R,8aS)-3-oxooctahydroindolizin-6-yl]imidazo[1,5-a]pyrazin-1-yl}-5-{[4-(trifluoromethyl)pyridin-2-yl]carbamoyl}phenyl acetate] gave an IC50 (HeLa cells) of 1530 nM and an IC50 [1] of 3.9 nM.

In the case of CC(=O)Nc1nccn2c([C@@H]3CC[C@H]4CCC(=O)N4C3)nc(-c3ccc(C(=O)Nc4cc(C(F)(F)F)ccn4)cc3O)c12 [Example 156, 4-{8-(acetylamino)-3-[(6R,8aS)-3-oxooctahydroindolizin-6-yl]imidazo[1,5-a]pyrazin-1-yl}-3-hydroxy-N-[4-(trifluoromethyl)pyridin-2-yl]benzamide], the IC50 (HeLa cells) is reported as 1750 nM and the IC50 [1] is reported as 4.4 nM.

With COCCN(C(=O)c1ccc(-c2nc([C@@H]3CC[C@H]4CCC(=O)N4C3)n3ccnc(N)c23)c(O)c1)c1cc(C(F)(F)F)ccn1 [Example 157, 4-{8-amino-3-[(6R,8aS)-3-oxooctahydroindolizin-6-yl]imidazo[1,5-a]pyrazin-1-yl}-3-hydroxy-N-(2-methoxyethyl)-N-[4-(trifluoromethyl)pyridin-2-yl]benzamide] the IC50 (HeLa cells) was 1780 nM and the IC50 [1] was 292 nM.

With CCOc1cc(C(=O)Nc2ncc(C)s2)ccc1-c1nc([C@@H]2CC[C@H]3CCC(=O)N3C2)n2c(Cl)cnc(N)c12 [Example 158, 4-{8-amino-5-chloro-3-[(6R,8aS)-3-oxooctahydroindolizin-6-yl]imidazo[1,5-a]pyrazin-1-yl}-3-ethoxy-N-(5-methyl-1,3-thiazol-2-yl)benzamide] the IC50 (HeLa cells) was 2070 nM and the IC50 [1] was 0.45 nM.
